According to ChEMBL document CHEMBL2086297, “Reduced pulmonary surfactant interaction of daptomycin analogs via tryptophan replacement with alternative amino acids” (2012):
Values after ≈ are worked out from the molar mass of the structure shown.

Experiments:
Assay type in all cases: functional
[1] = system: Staphylococcus aureus; assay: Antibacterial activity against methicillin-susceptible Staphylococcus aureus ATCC 29213 by broth microdilution method in presence of 5% pulmonary surfactant; details: ATCC 29213, Pulmonary surfactant
[2] = system: Staphylococcus aureus; assay: Antibacterial activity against methicillin-susceptible Staphylococcus aureus ATCC 29213 grown on calcium supplemented Mueller-Hinton broth by broth microdilution method
[3] = system: Staphylococcus aureus; assay: Antibacterial activity against methicillin-susceptible Staphylococcus aureus ATCC 29213 by broth microdilution method in presence of 1% pulmonary surfactant; details: ATCC 29213, Pulmonary surfactant
[4] = system: Staphylococcus aureus; assay: Antibacterial activity against methicillin-susceptible Staphylococcus aureus ATCC 29213 by broth microdilution method in presence of 4% human serum albumin

Row | MIC [1] [µg/mL] | MIC [2] [µg/mL] | MIC [3] [µg/mL] | MIC [4] [µg/mL] | Compound
1 | 32 | 4 (≈ 2.42 µM) | 16 | 8 | CCCCCCCCCC(=O)N[C@@H](Cc1c[nH]c2ccc(OC)cc12)C(=O)N[C@@H](CC(N)=O)C(=O)N[C@@H](CC(=O)O)C(=O)N[C@@H]1C(=O)NCC(=O)N[C@@H](CCCN)C(=O)N[C@@H](CC(=O)O)C(=O)N[C@H](C)C(=O)N[C@@H](CC(=O)O)C(=O)NCC(=O)N[C@H](CO)C(=O)N[C@@H]([C@@H](C)CC(=O)O)C(=O)N[C@@H](CC(=O)c2ccccc2N)C(=O)O[C@@H]1C
2 | 16 | 2 (≈ 1.22 µM) | 8 | 4 | CCCCCCCCCC(=O)N[C@@H](Cc1csc2ccccc12)C(=O)N[C@@H](CC(N)=O)C(=O)N[C@@H](CC(=O)O)C(=O)N[C@@H]1C(=O)NCC(=O)N[C@@H](CCCN)C(=O)N[C@@H](CC(=O)O)C(=O)N[C@H](C)C(=O)N[C@@H](CC(=O)O)C(=O)NCC(=O)N[C@H](CO)C(=O)N[C@@H]([C@@H](C)CC(=O)O)C(=O)N[C@@H](CC(=O)c2ccccc2N)C(=O)O[C@@H]1C
3 | 32 | 1 (≈ 0.627 µM) | 8 | 4 | CCCCCCCCCC(=O)N[C@@H](CCc1ccccc1)C(=O)N[C@@H](CC(N)=O)C(=O)N[C@@H](CC(=O)O)C(=O)N[C@@H]1C(=O)NCC(=O)N[C@@H](CCCN)C(=O)N[C@@H](CC(=O)O)C(=O)N[C@H](C)C(=O)N[C@@H](CC(=O)O)C(=O)NCC(=O)N[C@H](CO)C(=O)N[C@@H]([C@@H](C)CC(=O)O)C(=O)N[C@@H](CC(=O)c2ccccc2N)C(=O)O[C@@H]1C
4 | > 32 | 0.25 (≈ 0.153 µM) | 16 | 1 | CCCCCCCCCC(=O)N[C@@H](Cc1c[nH]c2ccc(F)cc12)C(=O)N[C@@H](CC(N)=O)C(=O)N[C@@H](CC(=O)O)C(=O)N[C@@H]1C(=O)NCC(=O)N[C@@H](CCCN)C(=O)N[C@@H](CC(=O)O)C(=O)N[C@H](C)C(=O)N[C@@H](CC(=O)O)C(=O)NCC(=O)N[C@H](CO)C(=O)N[C@@H]([C@@H](C)CC(=O)O)C(=O)N[C@@H](CC(=O)c2ccccc2N)C(=O)O[C@@H]1C
5 | 16 | 2 (≈ 1.25 µM) | 8 | 8 | CCCCCCCCCC(=O)N[C@@H](Cc1ccc(F)cc1)C(=O)N[C@@H](CC(N)=O)C(=O)N[C@@H](CC(=O)O)C(=O)N[C@@H]1C(=O)NCC(=O)N[C@@H](CCCN)C(=O)N[C@@H](CC(=O)O)C(=O)N[C@H](C)C(=O)N[C@@H](CC(=O)O)C(=O)NCC(=O)N[C@H](CO)C(=O)N[C@@H]([C@@H](C)CC(=O)O)C(=O)N[C@@H](CC(=O)c2ccccc2N)C(=O)O[C@@H]1C
6 | 4 | 2 (≈ 1.24 µM) | 2 | 8 | CCCCCCCCCC(=O)N[C@@H](Cc1ccccc1OC)C(=O)N[C@@H](CC(N)=O)C(=O)N[C@@H](CC(=O)O)C(=O)N[C@@H]1C(=O)NCC(=O)N[C@@H](CCCN)C(=O)N[C@@H](CC(=O)O)C(=O)N[C@H](C)C(=O)N[C@@H](CC(=O)O)C(=O)NCC(=O)N[C@H](CO)C(=O)N[C@@H]([C@@H](C)CC(=O)O)C(=O)N[C@@H](CC(=O)c2ccccc2N)C(=O)O[C@@H]1C
7 | > 32 | 4 (≈ 2.5 µM) | 32 | 32 | CCCCCCCCCC(=O)N[C@@H](COc1ccccc1)C(=O)N[C@@H](CC(N)=O)C(=O)N[C@@H](CC(=O)O)C(=O)N[C@@H]1C(=O)NCC(=O)N[C@@H](CCCN)C(=O)N[C@@H](CC(=O)O)C(=O)N[C@H](C)C(=O)N[C@@H](CC(=O)O)C(=O)NCC(=O)N[C@H](CO)C(=O)N[C@@H]([C@@H](C)CC(=O)O)C(=O)N[C@@H](CC(=O)c2ccccc2N)C(=O)O[C@@H]1C

Continued, compound first:

Row | Compound | MIC [1] [µg/mL] | MIC [2] [µg/mL] | MIC [3] [µg/mL] | MIC [4] [µg/mL]
8 | CCCCCCCCCC(=O)N[C@@H](Cc1ccc(O)cc1)C(=O)N[C@@H](CC(N)=O)C(=O)N[C@@H](CC(=O)O)C(=O)N[C@@H]1C(=O)NCC(=O)N[C@@H](CCCN)C(=O)N[C@@H](CC(=O)O)C(=O)N[C@H](C)C(=O)N[C@@H](CC(=O)O)C(=O)NCC(=O)N[C@H](CO)C(=O)N[C@@H]([C@@H](C)CC(=O)O)C(=O)N[C@@H](CC(=O)c2ccccc2N)C(=O)O[C@@H]1C | > 32 | > 32 | > 32 | > 32
9 | CCCCCCCCCC(=O)N[C@@H](Cc1ccc(N)cc1)C(=O)N[C@@H](CC(N)=O)C(=O)N[C@@H](CC(=O)O)C(=O)N[C@@H]1C(=O)NCC(=O)N[C@@H](CCCN)C(=O)N[C@@H](CC(=O)O)C(=O)N[C@H](C)C(=O)N[C@@H](CC(=O)O)C(=O)NCC(=O)N[C@H](CO)C(=O)N[C@@H]([C@@H](C)CC(=O)O)C(=O)N[C@@H](CC(=O)c2ccccc2N)C(=O)O[C@@H]1C | 32 | 16 (≈ 10 µM) | 16 | 32
10 | CCCCCCCCCC(=O)N[C@@H](Cc1ccc(N2CCCC2)cc1)C(=O)N[C@@H](CC(N)=O)C(=O)N[C@@H](CC(=O)O)C(=O)N[C@@H]1C(=O)NCC(=O)N[C@@H](CCCN)C(=O)N[C@@H](CC(=O)O)C(=O)N[C@H](C)C(=O)N[C@@H](CC(=O)O)C(=O)NCC(=O)N[C@H](CO)C(=O)N[C@@H]([C@@H](C)CC(=O)O)C(=O)N[C@@H](CC(=O)c2ccccc2N)C(=O)O[C@@H]1C | 4 | 1 (≈ 0.606 µM) | 4 | 32
11 | CCCCCCCCCC(=O)N[C@@H](Cc1ccc(OCC)cc1)C(=O)N[C@@H](CC(N)=O)C(=O)N[C@@H](CC(=O)O)C(=O)N[C@@H]1C(=O)NCC(=O)N[C@@H](CCCN)C(=O)N[C@@H](CC(=O)O)C(=O)N[C@H](C)C(=O)N[C@@H](CC(=O)O)C(=O)NCC(=O)N[C@H](CO)C(=O)N[C@@H]([C@@H](C)CC(=O)O)C(=O)N[C@@H](CC(=O)c2ccccc2N)C(=O)O[C@@H]1C | 16 | 4 (≈ 2.46 µM) | 4 | 8
12 | CCCCCCCCCC(=O)N[C@@H](CCc1ccc(OC)cc1)C(=O)N[C@@H](CC(N)=O)C(=O)N[C@@H](CC(=O)O)C(=O)N[C@@H]1C(=O)NCC(=O)N[C@@H](CCCN)C(=O)N[C@@H](CC(=O)O)C(=O)N[C@H](C)C(=O)N[C@@H](CC(=O)O)C(=O)NCC(=O)N[C@H](CO)C(=O)N[C@@H]([C@@H](C)CC(=O)O)C(=O)N[C@@H](CC(=O)c2ccccc2N)C(=O)O[C@@H]1C | 32 | 2 (≈ 1.23 µM) | 8 | 8
13 | CCCCCCCCCC(=O)N[C@@H](Cc1ccc(N(C)C)cc1)C(=O)N[C@@H](CC(N)=O)C(=O)N[C@@H](CC(=O)O)C(=O)N[C@@H]1C(=O)NCC(=O)N[C@@H](CCCN)C(=O)N[C@@H](CC(=O)O)C(=O)N[C@H](C)C(=O)N[C@@H](CC(=O)O)C(=O)NCC(=O)N[C@H](CO)C(=O)N[C@@H]([C@@H](C)CC(=O)O)C(=O)N[C@@H](CC(=O)c2ccccc2N)C(=O)O[C@@H]1C | 2 | 2 (≈ 1.23 µM) | 2 | 4
14 | CCCCCCCCCC(=O)N[C@@H](Cc1ccsc1)C(=O)N[C@@H](CC(N)=O)C(=O)N[C@@H](CC(=O)O)C(=O)N[C@@H]1C(=O)NCC(=O)N[C@@H](CCCN)C(=O)N[C@@H](CC(=O)O)C(=O)N[C@H](C)C(=O)N[C@@H](CC(=O)O)C(=O)NCC(=O)N[C@H](CO)C(=O)N[C@@H]([C@@H](C)CC(=O)O)C(=O)N[C@@H](CC(=O)c2ccccc2N)C(=O)O[C@@H]1C | 16 | 4 (≈ 2.52 µM) | 8 | 32
